In article PMC6864407 (Pharmacology Research & Perspectives, 2019):
Blank lines part the entries; values can stand above or below the compound they belong to.

Tests used:
[1] = Pharmacokinetic study (ocular distribution) in monkeys after single ocular instillation; conditions: monkey, 4 h, regorafenib 17.1 mg/mL (50 μL/eye) or pazopanib 5.0 mg/mL (30 μL/eye)
Protocol: (§1) In the rabbit and monkey studies, sample preparation and determination of drug concentrations were performed in the same manner for the rat pharmacokinetic study.

[2] = test system: choroidal neovascularization; set-up: method as in PMID 21620822; conditions: after ocular instillation in rats; cited from earlier work
[3] = test system: VEGF‐induced fluorescein leakage; set-up: method as in PMID 23169884; conditions: ocular instillation in rabbits; cited from earlier work
melanin = test system: melanin; set-up: method as in PMID 23385800; conditions: cited from earlier work
neovascular AMD = conditions: eye‐drop formulations; cited from earlier work
in vivo = conditions: rat, topical or ocular; for half-life: t1/2, rat
Protocol: (§2) The both eyes (dosed eye and nondosed eye) were collected and washed by water, and then the eye tissues (the choroid/sclera and retina) were collected.
(§3) An aliquot of acetonitrile solution containing an internal standard was added to the plasma sample and mixed. After centrifugation, supernatant was mixed with 10 mmol/L ammonium acetate solution to prepare a sample for determination of drug concentration by liquid chromatography‐tandem mass spectrometry (LC/MS/MS). An aliquot of 50 vol% methanol was added to the eye tissues, and then homogenized by a beads shocker to prepare homogenate samples. An aliquot of the acetonitrile solution containing the internal standard was added to the homogenate samples and mixed. After centrifugation, supernatant was mixed with 10 mmol/L ammonium acetate solution to prepare samples for the determination of drug concentrations.
(§4) LC/MS/MS system consisted of ACQUITY UPLC system (Waters Corporation) and QTRAP6500 (AB SCIEX) was used for the determination of drug concentrations. The prepared samples were separated by ACQUITY UPLC peptide BEH C18 column (1.7 µm, 2.1 × 50 mm) (Waters Corporation, Milford, MA), with mobile phase A: 10 mmol/L ammonium acetate solution and mobile phase B: acetonitrile. After injection of the prepared samples to LC/MS/MS, the samples were eluted (0.2 mL/minutes) with 30% B followed 0.10 minutes isocratic period; 3.90 minutes linear gradient to 70% B; 0.01 minutes linear gradient to 30% B; and 1.49 minutes isocratic period. Multiple reaction monitoring was performed by using an atmospheric pressure chemical ionization probe, and monitor ion of regorafenib and pazopanib were 482.958/270.000 (m/z, Q1/Q3) and 438.184/356.900 (m/z, Q1/Q3), respectively.
(§5) The pharmacokinetic parameters of regorafenib and pazopanib in the eye tissues and plasma were calculated by average concentrations in the eye tissues and plasma. Maximum concentration (Cmax) and the time to reach Cmax (tmax) were obtained directly from the observed values. Log‐transformed concentrations were plotted against time. The elimination rate constant (ke) was estimated by linear least‐squares method using the last 2 or 3 observed data points. Apparent half‐life (t1/2) was obtained as ln2/ke. Area under the concentration vs time curve (AUC) from time 0 to the observed data point (AUC0‐t) was calculated using the linear trapezoidal method. AUC after the last data point was estimated by extrapolating with the ke and added up with AUC0‐t to calculate AUC from time 0 to infinity (AUC0‐∞).

laser‐induced CNV = assay: Laser‐induced monkey CNV model; conditions: for Change in incidence of Grade 4 lesions between Day‐1 and Day35: Fisher's exact test, Day‐1 vs Day 35; for Percentage of Grade 4 lesion: aflibercept 500 μg/eye intravitreal once, mean of 6 eyes
[4] = Pharmacokinetic study in rats after single ocular instillation; conditions: rat; for AUC0‐t / AUC0‐∞ / AUC: single ocular instillation, 10 μL/eye; for AUC0‐t / AUC0‐∞ / AUC / Concentration: regorafenib 21.2 mg/mL or pazopanib 4.9 mg/mL; for concentration at 0.5 h: topical; for half-life / Tmax / AUC: topical or ocular; for Concentration: choroid/sclera, 0.01 mL; for choroid/sclera concentration: 0.5 hours after administration;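 for all read-outs here: drug levels in plasma and homogenized choroid/sclera and retina quantified by LC/MS/MS, parameters derived from mean concentrations, t1/2 from terminal log-linear slope, AUC via linear trapezoids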
Protocol: as §2, §3, §4, §5

[5] = Pharmacokinetic study in rabbits after single ocular instillation; conditions: rabbit, choroid/retina, 1.5 h, regorafenib 24.1 mg/mL or pazopanib 5.0 mg/mL, 0.02 mL
Protocol: as §1

[6] = choroid/sclera of the dosed eye
[7] = in vivo, choroid/sclera of dosed eye, single ocular instillation, regorafenib 21.2 mg/mL or pazopanib 4.9 mg/mL, 10 μL/eye
[8] = in vivo, plasma, single ocular instillation, regorafenib 21.2 mg/mL or pazopanib 4.9 mg/mL, 10 μL/eye

Concentration ([1]; cornea, nondosed eye): BLQ (<1) ng/g
Tmax (in vivo; [6]): 4 h
AUC0‐t ([4]; choroid/sclera of dosed eye): 42 100 h × ng/g
AUC0‐∞ ([4]; choroid/sclera of dosed eye): 112 000 h × ng/g
concentration at 0.5 h [4, 6]: 293 ng/g
half-life [4, 6]: 245 h
concentration at 0.5 h ([4]; choroid/sclera of the nondosed eye): 11.3 ng/g
Tmax ([4]; plasma): 0.5 h
half-life ([4]; plasma): 20.1 h
AUC ([4]; plasma, AUC0‐t): 1280 ng·h/mL
AUC ([4]; plasma, AUC0‐∞): 1300 ng·h/mL
AUC0‐t ([4]; retina of dosed eye): 3450 ng·h/g
AUC0‐∞ ([4]; retina of dosed eye): 6660 ng·h/g
Tmax ([4]; retina of the dosed eye): 120 h
half-life ([4]; retina of the dosed eye, 4.9 mg/mL (10 μL/eye)): 159 h
Compound: Cc1ccc(Nc2nccc(N(C)c3ccc4c(C)n(C)nc4c3)n2)cc1S(N)(=O)=O.Cl [Pazopanib, 5‐[[4‐[(2,3‐dimethylindazol‐6‐yl)‐methylamino]pyrimidin‐2‐yl]amino]‐2‐methylbenzenesulfonamide hydrochloride]
Effect on angiogenesis and vascular hyperpermeability [2]: reduced angiogenesis and vascular hyperpermeability
Suppression of VEGF‐induced fluorescein leakage in the posterior eye tissues [3]: failed to suppress
Binding to melanin (melanin): strongly binds to melanin
Clinical efficacy of eye‐drop formulation in neovascular AMD (neovascular AMD): lack of efficacy
Change in incidence of Grade 4 lesions between Day‐1 and Day35 (laser‐induced CNV): no significant difference

Compound: CNC(=O)c1cc(Oc2ccc(NC(=O)Nc3ccc(Cl)c(C(F)(F)F)c3)c(F)c2)ccn1.O [Regorafenib, 4‐[4‐ ({[4‐Chloro‐3‐(trifluoromethyl)phenyl]carbamoyl}amino)‐3‐fluorophenoxy]‐N‐methylpyridine‐2‐carboxamide monohydrate]
Concentration ([5]; dosed eye): BLQ (<1) ng/g
Concentration ([5]; nondosed eye): BLQ (<1) ng/g
Concentration ([1]; choroid, nondosed eye): BLQ (<3) ng/g
Concentration ([1]; cornea, dosed eye): 350 ng/g
Concentration ([1]; cornea, nondosed eye): BLQ (<3) ng/g
Concentration ([1]; iris/ciliary body, dosed eye): 49.4 ng/g
Concentration ([1]; iris/ciliary body, nondosed eye): BLQ (<3) ng/g
Concentration ([1]; retina, dosed eye): BLQ (<3) ng/g
Concentration ([1]; retina, nondosed eye): BLQ (<3) ng/g
Clinical efficacy of eye‐drop formulation in neovascular AMD (neovascular AMD): lack of efficacy
AUC (in vivo; in vivo, AUC0‐t, plasma, single ocular instillation, regorafenib 21.2 mg/mL or pazopanib 4.9 mg/mL, 10 μL/eye): 1010 ng·h/mL
AUC (in vivo; in vivo, AUC0‐∞, plasma, single ocular instillation, regorafenib 21.2 mg/mL or pazopanib 4.9 mg/mL, 10 μL/eye): 1060 ng·h/mL
Cmax (in vivo; [7]): 1310 ng/g
Cmax (in vivo; [8]): 38.6 ng/mL
Cmax (in vivo; in vivo, retina of dosed eye, single ocular instillation, regorafenib 21.2 mg/mL or pazopanib 4.9 mg/mL, 10 μL/eye): 28 ng/g
half-life (in vivo; [7]): 29.7 h
half-life (in vivo; [8]): 23.9 h
Tmax (in vivo; in vivo, tmax): 0.5 h
Tmax (in vivo; in vivo, tmax, plasma, single ocular instillation, regorafenib 21.2 mg/mL or pazopanib 4.9 mg/mL, 10 μL/eye): 7 h
Tmax (in vivo; in vivo, tmax, retina of dosed eye, single ocular instillation, regorafenib 21.2 mg/mL or pazopanib 4.9 mg/mL, 10 μL/eye): 7 h
AUC0‐t ([4]; choroid/sclera of dosed eye): 15 300 h × ng/g
AUC0‐∞ ([4]; choroid/sclera of dosed eye): 16 400 h × ng/g
Concentration ([4]; dosed eye, 1.5 h): 552 ng/g
Concentration ([4]; dosed eye, 4 h): 340 ng/g
Concentration ([4]; nondosed eye, 1.5 h): 29.1 ng/g
Concentration ([4]; nondosed eye, 4 h): 72.3 ng/g
choroid/sclera concentration ([4]; dosed eye): 1310 ng/g
choroid/sclera concentration ([4]; nondosed eye): 129 ng/g
AUC0‐t ([4]; retina of dosed eye): 517 ng·h/g

Compound: Aflibercept: 40 mg/mL EYLEA Injection For Intravitreal Injection; anti‐VEGF agent, positive control
Percentage of Grade 4 lesion (laser‐induced CNV; Day 8, pazopanib eye‐drops 5.0 mg/mL four times daily): 4.2%
Percentage of Grade 4 lesion (laser‐induced CNV; Day 15, pazopanib eye‐drops 5.0 mg/mL four times daily): 4.2%
Percentage of Grade 4 lesion (laser‐induced CNV; Day 22, pazopanib eye‐drops 5.0 mg/mL four times daily): 4.2%
Percentage of Grade 4 lesion (laser‐induced CNV; Day 29, pazopanib eye‐drops 5.0 mg/mL four times daily): 4.2%
Change in incidence of Grade 4 lesions between Day‐1 and Day35 (laser‐induced CNV): significant efficacy had been maintained until Day35
